The values that follow are results of earlier work, collected in EP4640076A1, “ORAL PRODUCT WITH FLAVOR EMULSION” (Nicoventures Trading Limited, priority 2024, dated 2025).

Structures are written as SMILES. Where two headings read alike, the source gives them in different places.

One may read the logP as a log measure of how a compound divides between an organic and an aqueous phase.

For series [1] the following is noted: at 25°C; heptanal.

For the compound `CCCCCCC=O` [heptanal], the logP (heptanal) was 2.44. Further, in series [1], the vapor pressure is listed as 3.85 mm Hg.
Consider `Oc1ccc(/C=C/c2cc(O)cc(O)c2)cc1` [Resveratrol, 3,5,4'-trihydroxy-trans-stilbene], for which the logP (resveratrol) is reported as 3.1.
